What was measured:
[1] = target: recombinant human DPPIV (rhDPPIV) (Homo sapiens (Human), UniProt P27487); assay: DPPIV enzymatic activity assay; type: biochemical; settings: Table 3B
[2] = target: recombinant human FAPα (rhFAPα) (Homo sapiens (Human), UniProt Q12884); assay: FAPα enzymatic exopeptidase (dipeptidase) activity assay, Z-Gly-Pro-AMC; type: biochemical; settings: for inhibition at 1 µM: 1 μM test compound, exopeptidase, Table 3B, read-out: rhFAPα (% exo inh @ 1 μM)
[3] = target: recombinant human DPP9 (rhDPP9) (Homo sapiens (Human), UniProt Q86TI2); assay: Inhibition of DPP9 activity, 10 ng rhDPP9, H-Gly-Pro-AMC; type: biochemical; settings: Table 3B
[4] = tested on: human AML cell line MV4-11; assay: Cytotoxicity assay in human leukemia cell lines (Cell-Titer Glo); settings: Homo sapiens, MV4-11, 48 h, read-out: MV4-11 viability IC50, μM
[5] = target: recombinant human PREP (rhPREP) (Homo sapiens (Human), UniProt P48147); assay: PREP enzymatic activity assay; type: biochemical; settings: Table 3B
Sequence of recombinant human PREP (rhPREP) (P48147 whole entry): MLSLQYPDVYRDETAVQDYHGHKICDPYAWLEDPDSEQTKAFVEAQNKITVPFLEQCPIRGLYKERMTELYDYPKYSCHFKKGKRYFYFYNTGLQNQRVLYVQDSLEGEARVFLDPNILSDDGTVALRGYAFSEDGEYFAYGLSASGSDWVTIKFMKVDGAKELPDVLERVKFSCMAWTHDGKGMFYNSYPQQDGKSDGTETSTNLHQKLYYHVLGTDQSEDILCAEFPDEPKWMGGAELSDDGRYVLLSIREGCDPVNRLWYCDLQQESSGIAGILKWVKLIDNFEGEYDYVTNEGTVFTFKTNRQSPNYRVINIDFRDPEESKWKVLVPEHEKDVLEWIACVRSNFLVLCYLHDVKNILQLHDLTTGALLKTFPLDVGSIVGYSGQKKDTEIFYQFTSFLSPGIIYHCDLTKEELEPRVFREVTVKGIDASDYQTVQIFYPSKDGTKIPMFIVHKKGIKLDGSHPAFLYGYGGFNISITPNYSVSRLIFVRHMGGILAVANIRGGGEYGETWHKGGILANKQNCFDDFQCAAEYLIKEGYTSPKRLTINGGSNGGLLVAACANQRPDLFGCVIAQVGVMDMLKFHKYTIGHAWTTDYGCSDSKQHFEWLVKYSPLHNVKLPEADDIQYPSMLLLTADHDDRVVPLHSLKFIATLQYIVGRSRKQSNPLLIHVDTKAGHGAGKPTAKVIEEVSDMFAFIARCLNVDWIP

Sequence of recombinant human DPPIV (rhDPPIV) (P27487 whole entry): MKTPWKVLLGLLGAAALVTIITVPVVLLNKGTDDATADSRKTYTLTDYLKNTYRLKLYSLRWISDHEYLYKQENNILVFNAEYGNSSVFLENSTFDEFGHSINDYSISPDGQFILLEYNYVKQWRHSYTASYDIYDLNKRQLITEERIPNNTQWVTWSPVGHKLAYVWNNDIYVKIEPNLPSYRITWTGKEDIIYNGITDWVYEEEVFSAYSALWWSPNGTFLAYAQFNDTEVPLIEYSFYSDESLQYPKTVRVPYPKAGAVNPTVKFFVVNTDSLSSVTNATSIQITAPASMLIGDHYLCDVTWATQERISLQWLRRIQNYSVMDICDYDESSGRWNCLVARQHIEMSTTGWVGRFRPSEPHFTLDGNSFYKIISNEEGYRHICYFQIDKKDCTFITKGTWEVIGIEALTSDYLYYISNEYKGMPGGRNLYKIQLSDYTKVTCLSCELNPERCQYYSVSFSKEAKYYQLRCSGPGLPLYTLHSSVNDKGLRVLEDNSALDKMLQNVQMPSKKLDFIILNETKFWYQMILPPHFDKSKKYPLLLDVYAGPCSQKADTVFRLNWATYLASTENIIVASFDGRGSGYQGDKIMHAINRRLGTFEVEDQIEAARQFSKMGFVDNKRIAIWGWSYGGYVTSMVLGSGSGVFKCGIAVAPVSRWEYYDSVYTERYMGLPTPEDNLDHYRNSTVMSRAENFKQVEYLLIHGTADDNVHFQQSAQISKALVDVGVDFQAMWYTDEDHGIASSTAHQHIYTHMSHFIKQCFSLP
Sequence of recombinant human DPP9 (rhDPP9) (Q86TI2 whole entry): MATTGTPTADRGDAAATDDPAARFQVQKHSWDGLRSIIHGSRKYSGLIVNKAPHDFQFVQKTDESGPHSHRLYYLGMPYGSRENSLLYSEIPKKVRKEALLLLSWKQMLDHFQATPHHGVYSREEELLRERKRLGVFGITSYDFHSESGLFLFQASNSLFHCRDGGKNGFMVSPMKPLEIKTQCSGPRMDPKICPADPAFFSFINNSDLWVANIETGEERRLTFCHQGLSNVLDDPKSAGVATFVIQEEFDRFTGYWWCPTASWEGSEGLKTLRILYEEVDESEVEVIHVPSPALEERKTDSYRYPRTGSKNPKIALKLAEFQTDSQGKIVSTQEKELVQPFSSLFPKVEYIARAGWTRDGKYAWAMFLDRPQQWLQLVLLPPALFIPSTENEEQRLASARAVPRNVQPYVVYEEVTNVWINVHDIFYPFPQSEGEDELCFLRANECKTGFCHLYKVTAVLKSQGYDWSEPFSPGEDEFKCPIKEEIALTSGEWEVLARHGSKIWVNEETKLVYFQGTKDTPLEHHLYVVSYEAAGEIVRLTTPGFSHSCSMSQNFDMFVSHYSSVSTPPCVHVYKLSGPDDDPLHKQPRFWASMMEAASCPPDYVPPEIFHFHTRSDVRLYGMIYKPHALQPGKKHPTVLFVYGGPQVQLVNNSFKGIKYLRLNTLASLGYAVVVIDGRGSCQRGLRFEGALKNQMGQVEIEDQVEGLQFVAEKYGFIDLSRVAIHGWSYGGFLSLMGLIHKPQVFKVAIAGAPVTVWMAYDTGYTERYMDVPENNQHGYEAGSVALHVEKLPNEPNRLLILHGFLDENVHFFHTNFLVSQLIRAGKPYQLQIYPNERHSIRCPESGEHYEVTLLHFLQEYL
Sequence of recombinant human FAPα (rhFAPα) (Q12884 whole entry): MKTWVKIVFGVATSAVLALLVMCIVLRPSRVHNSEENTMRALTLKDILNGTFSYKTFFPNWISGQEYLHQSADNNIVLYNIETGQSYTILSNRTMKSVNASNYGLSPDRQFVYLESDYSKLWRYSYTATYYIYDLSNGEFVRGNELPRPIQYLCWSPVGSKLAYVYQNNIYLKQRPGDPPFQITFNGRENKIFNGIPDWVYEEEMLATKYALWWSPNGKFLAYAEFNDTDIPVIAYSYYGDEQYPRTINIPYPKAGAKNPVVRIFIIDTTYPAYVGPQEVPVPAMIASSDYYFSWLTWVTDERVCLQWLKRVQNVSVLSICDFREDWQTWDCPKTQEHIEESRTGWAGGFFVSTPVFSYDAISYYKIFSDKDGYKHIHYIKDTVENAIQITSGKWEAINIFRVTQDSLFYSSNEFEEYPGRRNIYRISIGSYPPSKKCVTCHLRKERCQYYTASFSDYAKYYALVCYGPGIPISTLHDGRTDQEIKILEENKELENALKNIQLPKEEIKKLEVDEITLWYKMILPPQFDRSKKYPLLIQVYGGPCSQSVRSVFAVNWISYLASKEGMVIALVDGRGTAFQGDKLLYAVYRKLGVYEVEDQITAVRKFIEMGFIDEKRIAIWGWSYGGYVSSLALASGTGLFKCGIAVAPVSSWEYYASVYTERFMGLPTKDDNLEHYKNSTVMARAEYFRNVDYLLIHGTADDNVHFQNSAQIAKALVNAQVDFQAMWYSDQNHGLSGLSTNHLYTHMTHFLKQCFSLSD

Row | Compound | IC50 [1] [µM] | inhibition at 1 µM [2] [%] | IC50 [3] [µM] | IC50 [4] [µM] | IC50 [2] [µM] | IC50 [5] [µM]
1 | N#C[C@@H]1CC(F)(F)CN1C(=O)CNC(=O)c1ccnc2ccc(-c3ccccc3)cc12 [Compound 1, (S)—N-(2-(2-cyano-4,4-difluoropyrrolidin-1-yl)-2-oxoethyl)-6-phenylquinoline-4-carboxamide] | > 10 | > 50 |  |  |  | 
2 | N#C[C@@H]1CC(F)(F)CN1C(=O)CNC(=O)c1ccnc2ccc(-c3ccc4cc(Cl)ccc4c3)cc12 [Compound 3, (S)-6-(6-chloronaphthalen-2-yl)-N-(2-(2-cyano-4,4-difluoropyrrolidin-1-yl)-2-oxoethyl)quinoline-4-carboxamide] | 1 to 10 |  | < 1 | 3 to 10 |  | 
3 | Cc1noc(C)c1-c1ccc2nccc(C(=O)NCC(=O)N3CC(F)(F)C[C@H]3C#N)c2c1 [Compound 4, (S)—N-(2-(2-cyano-4,4-difluoropyrrolidin-1-yl)-2-oxoethyl)-6-(3,5-dimethylisoxazol-4-yl)quinoline-4-carboxamide] | > 10 | > 50 |  |  |  | 
4 | N#C[C@@H]1CC(F)(F)CN1C(=O)CNC(=O)c1ccnc2ccc(-c3ccc4c(c3)CCC(=O)N4)cc12 [Compound 16, (S)—N-(2-(2-cyano-4,4-difluoropyrrolidin-1-yl)-2-oxoethyl)-2′-oxo-1′,2′,3′,4′-tetrahydro-[6,6′-biquinoline]-4-carboxamide] | 1 to 10 |  | < 1 | > 10 |  | 
5 | N#C[C@@H]1CC(F)(F)CN1C(=O)CNC(=O)c1ccnc2ccc(-c3ccc4c(c3)CCNC4=O)cc12 [Compound 18, (S)—N-(2-(2-cyano-4,4-difluoropyrrolidin-1-yl)-2-oxoethyl)-6-(1-oxo-1,2,3,4-tetrahydroisoquinolin-6-yl)quinoline-4-carboxamide] | < 1 |  | < 1 |  |  | 
6 | N#C[C@@H]1CC(F)(F)CN1C(=O)CNC(=O)c1ccnc2ccc(/C=C/c3ccncc3)cc12 [Compound 19, (S,E)-N-(2-(2-cyano-4,4-difluoropyrrolidin-1-yl)-2-oxoethyl)-6-(2-(pyridin-4-yl)vinyl)quinoline-4-carboxamide] | 1 to 10 |  | < 1 | < 3 |  | 
7 | N#C[C@@H]1CC(F)(F)CN1C(=O)CNC(=O)c1ccnc2ccc(/C=C/c3cccnc3)cc12 [Compound 20] | > 10 |  | < 1 | 3 to 10 |  | 
8 | N#C[C@@H]1CC(F)(F)CN1C(=O)CNC(=O)c1ccnc2ccc(/C=C/c3ccccn3)cc12 [Compound 21] | > 10 |  | < 1 |  |  | 
9 | COC(=O)/C=C/c1ccc2nccc(C(=O)NCC(=O)N3CC(F)(F)C[C@H]3C#N)c2c1 [Compound 22] | > 10 |  | < 1 |  |  | 
10 | Cc1ccc(-c2ccc3nccc(C(=O)NCC(=O)N4CC(F)(F)C[C@H]4C#N)c3c2)cn1 [Compound 23] |  | > 50 | < 1 |  | < 1 | 
11 | N#C[C@@H]1CC(F)(F)CN1C(=O)CNC(=O)c1ccnc2ccc(-c3ccc4c(c3)OCCO4)cc12 [Compound 24] |  | > 50 | < 1 |  | < 1 | 
12 | N#C[C@@H]1CC(F)(F)CN1C(=O)CNC(=O)c1ccnc2ccc(-c3ccc(C4CC4)nc3)cc12 [Compound 25] |  | > 50 | < 1 |  | < 1 | 
13 | C[C@@H](NC(=O)c1ccnc2ccc(-c3ccc(Cl)cc3)cc12)C(=O)N1CC(F)(F)C[C@H]1C#N [Compound 26] | > 10 | 25 to 50 | < 1 |  |  | 
14 | C[C@H](NC(=O)c1ccnc2ccc(-c3ccc(Cl)cc3)cc12)C(=O)N1CC(F)(F)C[C@H]1C#N [Compound 27] | > 10 | < 25 | < 1 |  |  | 
15 | CC(C)[C@@H](NC(=O)c1ccnc2ccc(-c3ccc(Cl)cc3)cc12)C(=O)N1CC(F)(F)C[C@H]1C#N [Compound 28] | > 10 | < 25 | > 10 |  |  | > 10
16 | CC(C)[C@H](NC(=O)c1ccnc2ccc(-c3ccc(Cl)cc3)cc12)C(=O)N1CC(F)(F)C[C@H]1C#N [Compound 29] | 1 to 10 | < 25 | > 10 |  |  | > 10
17 | COc1ccc(-c2ccc3nccc(C(=O)NCC(=O)N4CC(F)(F)C[C@H]4C#N)c3c2)cc1 [Compound 30] | 1 to 10 |  | < 1 | 3 to 10 |  | 
18 | N#C[C@@H]1CC(F)(F)CN1C(=O)CNC(=O)c1ccnc2ccc(-c3ccc(OC(F)(F)F)cc3)cc12 [Compound 31] | > 10 |  | < 1 |  |  | 
19 | CN1CCN(Cc2ccc(-c3ccc4nccc(C(=O)NCC(=O)N5CC(F)(F)C[C@H]5C#N)c4c3)cc2)CC1 [Compound 32] | > 10 | > 50 |  |  |  | 
20 | COc1ccc(-c2ccc3nccc(C(=O)NCC(=O)N4CC(F)(F)C[C@H]4C#N)c3c2)cn1 [Compound 33] |  | > 50 | < 1 |  | < 1 | 
21 | CC(C)Oc1ccc(-c2ccc3nccc(C(=O)NCC(=O)N4CC(F)(F)C[C@H]4C#N)c3c2)cn1 [Compound 34] |  | > 50 | < 1 |  | < 1 | 
22 | COCCOc1ccc(-c2ccc3nccc(C(=O)NCC(=O)N4CC(F)(F)C[C@H]4C#N)c3c2)cc1 [Compound 35] |  | > 50 | < 1 |  | < 1 | 
23 | COCCOc1ccc(-c2ccc3nccc(C(=O)NCC(=O)N4CC(F)(F)C[C@H]4C#N)c3c2)cn1 [Compound 36] | > 10 |  | < 1 |  |  | 

Row | Compound | IC50 [1] [µM] | inhibition at 1 µM [2] [%] | IC50 [3] [µM] | IC50 [4] [µM] | IC50 [2] [µM] | IC50 [5] [µM]
24 | N#C[C@@H]1CC(F)(F)CN1C(=O)CNC(=O)c1ccnc2ccc(/C=C/c3ccc4c(c3)CCC(=O)N4)cc12 [Compound 37] |  | > 50 | < 1 |  | < 1 | 
25 | N#C[C@@H]1CC(F)(F)CN1C(=O)CNC(=O)c1ccnc2ccc(/C=C/c3ccc4c(c3)CCNC4=O)cc12 [Compound 38] |  | > 50 | < 1 | > 10 | < 1 | 
26 | CC(=O)Nc1ccc(-c2ccc3nccc(C(=O)NCC(=O)N4CC(F)(F)C[C@H]4C#N)c3c2)cc1 [Compound 97] | > 10 |  | < 1 |  |  | 
27 | CC(=O)Nc1cccc(-c2ccc3nccc(C(=O)NCC(=O)N4CC(F)(F)C[C@H]4C#N)c3c2)c1 [Compound 98] | > 10 |  | < 1 |  |  | 
28 | CC(=O)Nc1ccccc1-c1ccc2nccc(C(=O)NCC(=O)N3CC(F)(F)C[C@H]3C#N)c2c1 [Compound 99] | > 10 | > 50 |  |  |  | 
29 | CNC(=O)c1ccc(-c2ccc3nccc(C(=O)NCC(=O)N4CC(F)(F)C[C@H]4C#N)c3c2)cc1 [Compound 100] | > 10 |  | < 1 |  |  | 
30 | N#C[C@@H]1CC(F)(F)CN1C(=O)CNC(=O)c1ccnc2ccc(-c3ccc4[nH]ncc4c3)cc12 [Compound 101] |  | > 50 | < 1 |  | < 1 | 
31 | CNC(=O)c1cccc(-c2ccc3nccc(C(=O)NCC(=O)N4CC(F)(F)C[C@H]4C#N)c3c2)c1 [Compound 102] | > 10 |  | < 1 |  |  | 
32 | N#C[C@@H]1CC(F)(F)CN1C(=O)CNC(=O)c1ccnc2ccc(-c3c[nH]c4ccccc34)cc12 [Compound 103] |  | > 50 | < 1 |  | < 1 | 
33 | N#C[C@@H]1CC(F)(F)CN1C(=O)CNC(=O)c1ccnc2ccc(-c3ccc4c(c3)CNC4=O)cc12 [Compound 104] | < 1 |  | < 1 |  |  | 
34 | N#C[C@@H]1CC(F)(F)CN1C(=O)CNC(=O)c1ccnc2ccc(/C=C/c3ccc4ncccc4c3)cc12 [Compound 105] |  | > 50 |  |  |  | 
35 | N#C[C@@H]1CC(F)(F)CN1C(=O)CNC(=O)c1ccnc2ccc(-c3ccc4c(c3)CC(=O)N4)cc12 [Compound 106] |  | > 50 | < 1 |  | < 1 | 
36 | N#C[C@@H]1CC(F)(F)CN1C(=O)CNC(=O)c1ccnc2ccc(-c3ccc4c(c3)C(=O)NCC4)cc12 [Compound 107] | 1 to 10 | > 50 | < 1 |  | < 1 | 
37 | N#C[C@@H]1CC(F)(F)CN1C(=O)CNC(=O)c1ccnc2ccc(-c3cccc4c3CCC(=O)N4)cc12 [Compound 108] | > 10 |  | < 1 |  |  | 
38 | N#C[C@@H]1CC(F)(F)CN1C(=O)CNC(=O)c1ccnc2ccc(-c3cccc4c3CCNC4=O)cc12 [Compound 109] | > 10 |  | < 1 |  |  | 
39 | CN1C(=O)CCc2cc(-c3ccc4nccc(C(=O)NCC(=O)N5CC(F)(F)C[C@H]5C#N)c4c3)ccc21 [Compound 110] | > 10 |  | < 1 | < 3 |  | 
40 | CN1CCc2cc(-c3ccc4nccc(C(=O)NCC(=O)N5CC(F)(F)C[C@H]5C#N)c4c3)ccc2C1=O [Compound 111] | 1 to 10 | > 50 | < 1 |  | < 1 | 
41 | N#C[C@@H]1CC(F)(F)CN1C(=O)CNC(=O)c1ccnc2ccc(/C=C/c3ccc4[nH]ncc4c3)cc12 [Compound 112] | < 1 | > 50 | < 1 |  | < 1 | 
42 | N#C[C@@H]1CC(F)(F)CN1C(=O)CNC(=O)c1ccnc2ccc(-c3ccc4c(c3)CCCN4)cc12 [Compound 113] | 1 to 10 | > 50 | < 1 |  | < 1 | 
43 | N#C[C@@H]1CC(F)(F)CN1C(=O)CNC(=O)c1ccnc2ccc(-c3ccc4c(c3)CCNC4)cc12 [Compound 114] | > 10 | > 50 |  |  |  | 
44 | N#C[C@@H]1CC(F)(F)CN1C(=O)CNC(=O)c1ccnc2ccc(/C=C/c3ccc4c(c3)CCN4)cc12 [Compound 115] | > 10 |  | < 1 |  |  | 
45 | CNC(=O)c1ccc(-c2ccc3nccc(C(=O)NCC(=O)N4CC(F)(F)C[C@H]4C#N)c3c2)cc1F [Compound 116] | > 10 |  | < 1 |  |  | 

— US11504364B2, “Inhibitors of fibroblast activation protein” (Praxis Biotech LLC, priority 2018, dated 2022)
